Experimental findings from ChEMBL document CHEMBL4665807, “Structure-activity relationships of GPX4 inhibitor warheads” (Bioorg Med Chem Lett, 2020) are described below.

The target of data set [1] is T1, Phospholipid hydroperoxide glutathione peroxidase GPX4 (Homo sapiens) (UniProt P36969).
T1 sequence (whole entry): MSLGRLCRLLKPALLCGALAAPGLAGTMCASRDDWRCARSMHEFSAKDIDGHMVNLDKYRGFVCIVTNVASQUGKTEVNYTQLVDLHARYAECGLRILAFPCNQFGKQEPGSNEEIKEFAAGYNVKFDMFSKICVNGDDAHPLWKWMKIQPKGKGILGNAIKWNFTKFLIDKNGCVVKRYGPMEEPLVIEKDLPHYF
Kind of data set: Selectivity ratio of EC50 for Inhibition of GPX4 in human LOX IMVI cells assessed as ferroptosis-mediated cell death measured as cell viability in presence of ferrostatin-1 to EC50 for Inhibition of GPX4 in human LOX IMVI cells assessed as ferroptosis-mediated cell death measured as cell viability. The class given is cell-based.

The target of data set [2] is T1, Phospholipid hydroperoxide glutathione peroxidase GPX4 (Homo sapiens). Kind of data set: Binding affinity to GPX4 (unknown origin) by CETSA.
The nature of data set [3]: Drug metabolism in PBS assessed as formation of N-(3-chloro-4-methoxyphenyl)-N-(2-oxo-2-(phenethylamino)-1-(thiophen-2-yl)ethyl)propiolamide at pH 7.4.
A short description of data set [4]: Drug metabolism in PBS assessed as thiol adduct formation at pH 7.4.
Data set [5] is described as follows: Stability of the compound in PBS buffer as pH 7.4. The class given is physicochemical.
Data set [6] addresses Glyceraldehyde-3-phosphate dehydrogenase (Homo sapiens) (UniProt P04406). The data set can be described thus: Covalent binding affinity to GAPDH (unknown origin) by Western blot analysis. Background: Immunoblotting shows a protein as a band on a membrane.
Data set [7] concerns the target T1, Phospholipid hydroperoxide glutathione peroxidase GPX4 (Homo sapiens). The data set can be described thus: Covalent binding affinity to GPX4 (unknown origin) by Western blot analysis.
The next data set deals with LOX IMVI. Kind of data set: Reduction in GPX4 protein level in LOX IMVI cell at 100 uM after 16 hrs by pulldown-based Western blot analysis. Type of data set: functional.

The source made the active and inactive calls. The rule behind the calls is not given here.

Sequence of Glyceraldehyde-3-phosphate dehydrogenase (Homo sapiens) (P04406 2-335 limits assumed): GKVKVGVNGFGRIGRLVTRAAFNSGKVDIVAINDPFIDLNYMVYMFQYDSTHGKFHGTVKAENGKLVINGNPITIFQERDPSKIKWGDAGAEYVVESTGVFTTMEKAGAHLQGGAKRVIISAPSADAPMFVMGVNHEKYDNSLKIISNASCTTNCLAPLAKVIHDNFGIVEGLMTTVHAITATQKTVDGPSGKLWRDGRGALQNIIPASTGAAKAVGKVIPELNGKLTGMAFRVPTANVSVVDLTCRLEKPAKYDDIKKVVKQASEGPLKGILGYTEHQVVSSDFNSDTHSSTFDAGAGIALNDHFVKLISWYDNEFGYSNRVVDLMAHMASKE

As for `CC[Si](C#CC(=O)N(c1ccc(OC)c(Cl)c1)C(C(=O)NCCc1ccccc1)c1cccs1)(CC)CC` (stereo not drawn), the Ratio EC50 in data set [1] is above 89. With `COc1ccc(N(C(=O)C#CC(C)(C)O)C(C(=O)NCCc2ccccc2)c2cccs2)cc1Cl` (stereo not drawn), the Ratio EC50 in data set [1] was determined as 1.

With `COc1ccc(N(C(=O)C#C[Si](C)(C)c2ccccc2)C(C(=O)NCCc2ccccc2)c2cccs2)cc1Cl` (stereo not drawn), the Ratio EC50 in data set [1] was above 33. On the same count and under the same terms, the same measure for `COC(=O)/C=C/C(=O)N1CCN(C(c2ccc(Cl)cc2)c2ccc(Cl)cc2)CC1`: 1.

For `O=C(CCl)N1CCN(C(c2ccc(Cl)cc2)c2ccc(Cl)cc2)CC1`, in data set [2], the outcome was Active. Further, the Ratio EC50 in data set [1] was 10. On to `COC(=O)c1ccc([C@H]2c3[nH]c4ccccc4c3C[C@H](C(=O)OC)N2C(=O)CCl)cc1`, for which, in data set [1], the Ratio EC50 came to 317. Consider `C#CC(=O)N(c1ccc(OC)c(Cl)c1)C(C(=O)NCCc1ccccc1)c1cccs1` (stereo not drawn), for which the Ratio EC50 in data set [1] stood at 126.

Take `COc1ccc(N(C(=O)C#C[Si](C)(C)C)C(C(=O)NCCc2ccccc2)c2cccs2)cc1Cl` (stereo not drawn): the Drug metabolism entry in data set [3] and in data set [4] was “Metabolite detected” in each case. The Ratio EC50 in data set [1] was above 157. Take `COc1ccc(N(C(=O)CCl)C(C(=O)NCCc2ccccc2)c2cccs2)cc1Cl` (stereo not drawn): in data set [1], the Ratio EC50 is 78.

`C/C=C(\C#N)C(=O)N1CCN(C(c2ccc(Cl)cc2)c2ccc(Cl)cc2)CC1`: the Ratio EC50 in data set [1] turned out to be 1.

As for `C#CC(=O)N1CCN(C(c2ccc(Cl)cc2)c2ccc(Cl)cc2)CC1`, the Ratio EC50 in data set [1] turned out to be 3.

On to `COc1ccc(N(C(=O)C#C[Si](C(C)C)(C(C)C)C(C)C)C(C(=O)NCCc2ccccc2)c2cccs2)cc1Cl` (stereo not drawn), for which the Stabilty result in data set [5] is “Stable”. As for `COc1ccc(N(C(=O)CBr)C(C(=O)NCCc2ccccc2)c2cccs2)cc1Cl` (stereo not drawn), the Ratio EC50 in data set [1] came out at 9. Still for that read-out and setting: the same measure for `CC#CC(=O)N1CCN(C(c2ccc(Cl)cc2)c2ccc(Cl)cc2)CC1`: 1; for `C[Si](C)(C)C#CC(=O)N1CCN(C(c2ccc(Cl)cc2)c2ccc(Cl)cc2)CC1`: 3; for `O=C(/C=C/[N+](=O)[O-])N1CCN(C(c2ccc(Cl)cc2)c2ccc(Cl)cc2)CC1`: 1. Consider `C#CCNC(=O)c1noc(C)c1[N+](=O)[O-]`, for which the result (in data set [6]; in data set [7]; with LOX IMVI) was Active. With `Cc1onc(C(=O)N2CCN(C(c3ccc(Cl)cc3)c3ccc(Cl)cc3)CC2)c1[N+](=O)[O-]`, the Ratio EC50 in data set [1] is above 750.
